Experimental data reported in PubChem BioAssay (NCI).
Values joined by “and” are separate entries in the source; they are usually repeats but may differ in a detail not shown here. Equal values may be shown once.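 Dose response: 5 concentrations. Exposure: 48 h. Format: 96-well plates. Endpoint: linear interpolation; highest concentration if not reached. GI50: concentration for 50% inhibition of growth. TGI: concentration producing complete growth inhibition.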

How the values were obtained:
Assay in all cases: NCI tumour cell line growth inhibition, 48 h
LXFL 529 NSCLC = system: LXFL 529 NSCLC
SNB-78 CNS = system: SNB-78 CNS
DLD-1 colon = system: DLD-1 colon
XF 498 CNS = system: XF 498 CNS
M19-MEL melanoma = system: M19-MEL melanoma
RXF-631 renal = system: RXF-631 renal
KM20L2 colon = system: KM20L2 colon
HOP-18 NSCLC = system: HOP-18 NSCLC
MDA-N = system: MDA-N
P388/ADR leukemia = system: P388/ADR leukemia
P388 leukemia = system: P388 leukemia
SN12K1 renal = system: SN12K1 renal

Structure (SMILES)	TGI (LXFL 529 NSCLC)	TGI (SNB-78 CNS)	TGI (DLD-1 colon)	TGI (XF 498 CNS)	TGI (M19-MEL melanoma)	TGI (KM20L2 colon)	TGI (HOP-18 NSCLC)	also measured
C=CCC1OC(C)(C)Oc2ccc(OCOCCOC)cc21 (stereo not drawn)	> 100 µM	–	–	–	–	–	–	–
c1ccc(SC2(Sc3ccccc3)CCCC2)cc1	–	> 100 µM	> 100 µM	> 100 µM	> 100 µM	> 100 µM	–	TGI (RXF-631 renal): > 100 µM
N=C(c1ccccc1)N(c1ccccc1)c1ccccc1	> 100 µM	> 100 µM	> 100 µM	–	> 100 µM	> 100 µM	13.1 µM	–
COc1cc2c(cc1O)C=NCC2	> 100 µM	> 100 µM	> 100 µM	> 100 µM	> 100 µM	> 100 µM	–	–
CCCCCCCCCCCOC(=S)NC(C)C	85.4 µM	78.5 µM	49 µM	30.9 µM	58.6 µM	30.2 µM	88.5 µM	–
O=[As](O)(O)c1ccc(NCc2ccccc2)cc1	–	–	–	–	–	–	–	TGI (MDA-N): > 100 µM
CC1CC2C3CC(F)C4=CC(=O)C=CC4(C)C3(F)C(O)CC2(C)C1(O)C(=O)COC(=O)C(C)(C)C (stereo not drawn)	–	> 100 µM	> 100 µM	> 100 µM	> 100 µM	> 100 µM	–	–
CN1C(=O)c2c(ccc3c2OCO3)C2C(O)Cc3cc4c(cc3C21)OCO4 (stereo not drawn)	–	–	–	–	–	–	–	TGI (MDA-N): 5.56 µM
O=C(O)c1ccccc1Cc1ccco1	> 100 µM	> 100 µM	> 100 µM	–	–	> 100 µM	> 100 µM	–
O=C(NCCCCCCCCNC(=O)c1cnc2ccccc2n1)c1cnc2ccccc2n1	> 100 µM	> 100 µM	> 100 µM	> 100 µM	> 100 µM	–	> 100 µM	–
O=C(O)CSCc1cccc2ccccc12	–	–	–	–	–	–	–	TGI (MDA-N): > 100 µM
Nc1nc(CCC(=O)Nc2cccc(C(F)(F)F)c2)cc(-c2cccc3ccccc23)n1	> 100 µM	> 100 µM	> 100 µM	> 100 µM	> 100 µM	> 100 µM	> 100 µM	TGI (RXF-631 renal): > 100 µM
CCOc1ccc(NC(=O)CC2SC(=Nc3ccc(Cl)cc3)NC2=O)cc1 (stereo not drawn)	> 100 µM	–	> 100 µM	> 100 µM	> 100 µM	> 100 µM	> 100 µM	TGI (RXF-631 renal): > 100 µM
CC1=C(C(=O)NCc2ccccc2)C(c2ccc(C3C(C(=O)NCc4ccccc4)=C(C)NC(C)=C3C(=O)NCc3ccccc3)cc2)C(C(=O)NCc2ccccc2)=C(C)N1	15.5 µM	27.1 µM	13.1 µM	31.1 µM	21.3 µM	29 µM	52.7 µM	–
CCSc1nnc2c(-c3ccccc3)n[nH]c2n1	–	–	–	–	–	–	–	TGI (MDA-N): > 100 µM
O=C(O)CN(c1ccccc1)S(=O)(=O)c1ccc(NC(=O)c2ccccc2)cc1	> 100 µM	–	> 100 µM	> 100 µM	> 100 µM	> 100 µM	> 100 µM	–
COc1cc2c(cc1OC)C13CCN4C=C5CCOC6CC(=O)N2C1C6C5CC43 (stereo not drawn)	–	–	–	–	–	–	–	TGI (MDA-N): > 100 µM
CC1[C@@H]2[C@@H](C=C3C4CCC5Cc6nc7c(nc6C[C@@]5(C)C4C[C@H](O)[C@]32CO)CC2CCC3C4=C[C@H]5O[C@@]6(O[C@@](C)(CO)C[C@@H]6O)C(C)[C@@]5(O)[C@]4(C)[C@@H](O)CC3[C@]2(C)C7)O[C@]12CCC(C)(C)O2 (stereo partly drawn)	0.0713 µM	0.34 µM and 0.642 µM	> 3.65 µM	–	> 3.65 µM	0.619 µM	> 3.65 µM	GI50 (HOP-18 NSCLC): 2.08 µM; GI50 (SNB-78 CNS): < 0.000365 µM; GI50 (DLD-1 colon): 0.583 µM; TGI (P388/ADR leukemia): > 3.65 µM; GI50 (XF 498 CNS): < 0.000365 µM; GI50 (M19-MEL melanoma): 2.13 µM; TGI (P388 leukemia): > 3.65 µM; TGI (SN12K1 renal): > 3.65 µM; GI50 (KM20L2 colon): 0.00719 µM
CC[P+](C)(Cc1ccccc1)c1ccccc1 (stereo not drawn)	> 100 µM	> 100 µM	> 100 µM	> 100 µM	> 100 µM	> 100 µM	> 100 µM	–
COc1cccc2c1C(=O)c1c(O)c3c(c(O)c1C2=O)CC(O)(C(C)=O)CC3OC1CC(N)C(O)C(C)O1 (stereo not drawn)	–	–	–	–	–	–	–	GI50 (MDA-N): 0.156 µg/mL; TGI (MDA-N): 0.391 µg/mL
FC(F)(F)C1(Cl)C(c2ccccc2)=C1c1ccccc1	26.3 µM	33.1 µM	28.3 µM	26.5 µM	27.7 µM	30.1 µM	35.6 µM	TGI (RXF-631 renal): 29.2 µM

Structure (SMILES)	TGI (LXFL 529 NSCLC)	TGI (SNB-78 CNS)	TGI (DLD-1 colon)	TGI (XF 498 CNS)	TGI (M19-MEL melanoma)	TGI (KM20L2 colon)	TGI (HOP-18 NSCLC)	also measured
Nc1ncnc2c1ncn2C1OC(COP(=O)(O)CP(=O)(O)O)C(O)C1O (stereo not drawn)	–	–	–	–	–	–	–	TGI (MDA-N): > 100 µM
CCC(C)CN1C(=O)NC(C)(Cc2ccccc2)C1=O (stereo not drawn)	> 100 µM	> 100 µM	> 100 µM	> 100 µM	> 100 µM	> 100 µM	> 100 µM	–
Cc1ccc(NCCCN2CCN(CCCNc3ccc(C)c4sc5ccccc5c(=O)c34)CC2)c2c(=O)c3ccccc3sc12	–	–	–	–	–	–	–	TGI (MDA-N): > 100 µM
CC1=CC2CC(C)=C(CC[C@]3(C)CC[C@H]([C@@H](C)C(=O)O)OO3)C(C)(C)C2CC1 (stereo partly drawn)	0.414 µM	4.09 µM	0.426 µM	0.768 µM	3.05 µM	2.63 µM	1.45 µM	TGI (RXF-631 renal): 2.95 µM
CC1=NN(C(=O)c2ccccc2O)C(=O)/C1=C/c1ccc([N+](=O)[O-])cc1	> 100 µM	> 100 µM	> 100 µM	> 100 µM	> 100 µM	> 100 µM	–	GI50 (MDA-N): 0.0903 µM; TGI (MDA-N): > 100 µM
COc1ccc(S(=O)(=O)NC(C)C(=O)O)cc1 (stereo not drawn)	> 100 µM	–	> 100 µM	63.4 µM	> 100 µM	> 100 µM	> 100 µM	–
CN(C)c1ccc2c(c1)C(=O)N(OS(=O)(=O)c1ccc([N+](=O)[O-])cc1)C2=O	37 µM	73.8 µM	86.8 µM	35.1 µM	52.7 µM	–	> 100 µM	TGI (RXF-631 renal): 47.1 µM
CC1=CCC[C@@]2(C)C(CC[C@@H]2C(C)/C=C/C(C)C)c2ccc(cc2C(=O)O)C[C@@H](O)CC1 (stereo partly drawn)	23.9 µM	34.5 µM	14 µM	–	29.6 µM	–	–	–
Cc1ccc(C)c(NC(=O)C(=O)CC(=O)C2CCOC2=O)c1 (stereo not drawn)	> 100 µM	> 100 µM	> 100 µM	> 100 µM	> 100 µM	> 100 µM	–	–
CCC1(C)NN=c2s/c(=C/c3ccc(OC)cc3)c(=O)n2N1 (stereo not drawn)	> 100 µM	> 100 µM	> 100 µM	> 100 µM	–	> 100 µM	–	–
N#C/C(=C\c1ccccc1O)C(N)=O	> 100 µM	> 100 µM	> 100 µM	> 100 µM	> 100 µM	> 100 µM	–	TGI (RXF-631 renal): > 100 µM
CC(C)=CCN=C(N)N	–	–	–	–	–	–	–	TGI (MDA-N): > 100 µM
COC(=O)Cc1cc(OC)c(OC)cc1Br	> 100 µM	> 100 µM	> 100 µM	–	> 100 µM	> 100 µM	–	–
CCOc1ccccc1NC(=O)CCC(=O)OC	> 100 µM	> 100 µM	> 100 µM	> 100 µM	> 100 µM	> 100 µM	> 100 µM	–
O=C(CC1=Nc2nnc(-c3nnc4n3C(=O)C(CC(=O)c3cccnc3)=N4)n2C1=O)c1cccnc1	> 100 µM	> 100 µM	> 100 µM	–	> 100 µM	> 100 µM	–	TGI (RXF-631 renal): > 100 µM
COc1ccc(/C(=N/NC(N)=O)C2(O)C(=O)Nc3ccc([N+](=O)[O-])cc32)cc1 (stereo not drawn)	35.9 µM	34.7 µM	57 µM	30.1 µM	45.6 µM	51.5 µM	–	–
N#Cc1cccc(N2C(=O)c3c(c(-c4ccccc4)c(-c4ccc(Sc5ccc(-c6c(-c7ccccc7)c7c(c(-c8ccccc8)c6-c6ccccc6)C(=O)N(c6cccc(C#N)c6)C7=O)cc5)cc4)c(-c4ccccc4)c3-c3ccccc3)C2=O)c1	> 100 µM	> 100 µM	> 100 µM	85 µM	–	> 100 µM	–	TGI (RXF-631 renal): > 100 µM
Cc1cccc(C(=O)c2cccc3ccccc23)c1C(=O)O	> 100 µM	> 100 µM	> 100 µM	> 100 µM	> 100 µM	> 100 µM	> 100 µM	TGI (RXF-631 renal): > 100 µM
N#Cc1cc(C#N)c(Cl)nc1N	–	–	–	–	–	–	–	TGI (MDA-N): > 10 µM
COc1cccc([C@H]2CC(=O)c3cc4c(cc3N2)OCO4)c1	–	–	–	–	–	–	–	GI50 (MDA-N): 0.0287 µM
